Molecules are shown by their SMILES. Converted amounts (≈) assume the structure as drawn. Marks after values point to notes of the source that are not given here. A value given as a limit tells only on which side of the number the result lay.

In one experiment the target is PBPB3 (Listeria monocytogenes, UniProt Q8Y9T2). As to the kind of experiment: Competition binding assay (ampicillin preincubation, then Boc-FL), whole cells. On the procedure:
(§1) PBPs form a covalent complex with β-lactam antibiotics. When fluorescent β-lactams are employed, these proteins can be visualized immediately following SDS-PAGE [17]. Total protein from whole cells or a cell wall extract of L. monocytogenes EGD were incubated with different concentrations of Boc-FL, Bocillin-650 (Boc-650) or Ampicillin-Alexa430 (Amp-430) for 30 min at 37°C. The highest affinity binding was obtained with Boc-FL and bands identified using this compound in the whole cell assay are shown in Figure 1. PBPs A1, B2, B1, A2, B3, D1, C1 and C2 were also identified with Boc-650 and Amp-430 (data not shown). Two types of non-specific band were also observed (lane 1, 0 μM Boc-FL) and they represent the natural intrinsic fluorescence of other proteins in the cell extract. However, the bands that are absent in lane 8 (ampicillin 100 μg/ml, 50 μM Boc-FL) compared with lane 7 (50 μM Boc-FL) represent specific PBPs. Those bands that completely disappeared (PBPB1, PBPD1), partially disappeared (PBPA1, PBPB2, PBPA2 and PBPB3) or remained present (PBPC1 and PBPC2) reflect total, partial and no binding of ampicillin, respectively. The results of an experiment examining saturation with 50 μM Boc-FL, the binding capacity of each PBP for Boc-FL and the affinity of the PBPs for ampicillin (Amp) are presented in Table 2. These assays involved incubation of whole cell with ampicillin followed by a similar incubation with Boc-FL. Therefore, only those PBPs with no or low affinity for ampicillin would be able to bind Boc-FL during the second incubation. The deacylation rate for the PBPs is actually extremely low, which permitted their detection in the gel for several hours after binding.
(§2) Figure 1 Complete set of PBPs identified with Boc-FL in whole cells of L. monocytogenes. Samples of whole cells (100 μg of total protein) were labeled with Boc-FL at concentrations of 0 (1), 0.5 (2), 1 (3), 2.5 (4), 5 (5), 10 (6), 50 μM (7) and 50 μM plus 100 μg/ml ampicillin (8). Labeled bands were detected directly on the gel, quantified, and their molecular mass estimated. The affinity of each band for Boc-FL (ID50) was estimated from their fluorescence as a function of the concentration of Boc-FL. The name of the PBP corresponding to each band is indicated on the right, while the positions of molecular weight markers (bars) and unspecific bands (arrowheads) are shown on the left.
(§3) Total whole cell proteins or purified recombinant protein resuspended in 50 mM NaPi buffer, pH 7.0 were labeled by incubation at 37°C for 30 min with different concentrations of Boc-FL (Molecular Probes), Boc-650 (Molecular Probes) or Amp-430 (prepared in the laboratory by coupling ampicillin to Alexa-430), and then separated on a 10% acrylamide, 3.3% cross-linkage SDS-PAGE gel. To avoid degradation of the fluorescent β-lactam antibiotics by β-lactamases, samples were incubated at 37°C with clavulanic acid at a final concentration of 10 μg/ml or EDTA at a final concentration of 10 mM for 30 min before labeling, where appropriate. Competition experiments were carried out by preincubation of the samples with ampicillin (100 μg/ml) for 30 min at 37°C, before adding the fluorescent antibiotic. The samples were then further incubated for 30 min at 37°C. PBPs were visualized directly on the polyacryloamide gel by fluorescence using a Typhoon 9410 imager (Amersham Biosciences) with excitation wavelengths of 588, 633 or 457 nm and emission filters 520BP40, 670BP30 or 555BP20 for Boc-FL, Boc-650 and Amp-430, respectively.

The target in experiment [1] is T1, PBPD1 (PBP5) (Listeria monocytogenes, UniProt Q8Y3S7). Described as above. On the procedure:
as §1, §2, §3

Experiment [2] addresses T2, PBPB1 (PBP3) (Listeria monocytogenes, UniProt Q8Y763). The description is as above. As for the experimental part: as §1, §2, §3
A further experiment addresses PBPC1 (Listeria monocytogenes, UniProt Q8Y9I8). The description is as above. As for the experimental part: as §1, §2, §3
The target of another experiment is PBPC2 (Listeria monocytogenes, UniProt Q8Y5Y7). Described as above. As for the experimental part:
as §1, §2, §3

Experiment [3] concerns the target T3, PBPA2 (PBP4) (Listeria monocytogenes, UniProt Q8Y547). The experiment is described as above. As for the experimental part: as §1, §2, §3
Experiment [4] addresses T4, PBPA1 (PBP1) (Listeria monocytogenes, UniProt Q8Y610). The description is as above. On the procedure:
as §1, §2, §3

Experiment [5] deals with T5, PBPB2 (PBP2) (Listeria monocytogenes, UniProt Q8Y5L8). Described as above. On the procedure: as §1, §2, §3
Experiment [6] deals with L. monocytogenes KD2812 (Δlmo2812). As to the kind of experiment: Microdilution MIC test. The class given is cell-based, Listeria monocytogenes. The following applies: Listeria monocytogenes. On the procedure:
(§4) To determine the effect of these mutations on cell morphology, the strains EGD, KD2812 and DA07 were analyzed by scanning electron microscopy (SEM). […] At 30°C the average cell length compared to strain EGD was increased by 38.5% in strain KD2812 and by 44.8% in the double mutant strain. The respective values at 37°C were 37.5% and 43%. […] The variant cells were characteristically curved with a bend at either one or both ends and subterminal constrictions. The number of cells with altered morphology was increased as the growth temperature was raised (Figure 3; b, e, h). Cell bending was more pronounced in the population of AD07 mutant cells (Figure 3; c, f, i). […] Similar results were found for a mutant of L. monocytogenes lacking PBP5 (PBPD1) examined in a previous study.
(§5) Microdilution tests were performed using cation-adjusted Mueller-Hinton broth (CAMHB) supplemented with 5% lysed horse blood containing two-fold dilutions of the antimicrobial agents. These mixtures were dispensed in 100 μl aliquots into plastic 96-well plates. To prepare inocula, a single colony of each strain from a TSBYE plate was transferred into 10 ml of the same medium and incubated for 24 h at 37°C. These cultures were serially diluted in CAMHB to a concentration of 10^5 cfu/ml and 100 μl aliquots were added to the microdilution plates. The plates were incubated for 18-20 h at 37°C before the reading of the MIC endpoints. The MIC was the lowest antibiotic concentration at which visible growth was inhibited.
Background: Broth dilution looks for growth in wells or tubes with falling amounts of substance.

The subject of a further experiment is L. monocytogenes EGD. As to the kind of experiment: Microdilution MIC test. The class given is cell-based, Listeria monocytogenes. The following applies: Listeria monocytogenes. As for the experimental part:
as §4, §5

The subject of experiment [7] is L. monocytogenes AD07 (Δlmo2812 Δlmo2754). The experiment in a line: Microdilution MIC test. In kind it is cell-based, Listeria monocytogenes. The conditions noted are these: Listeria monocytogenes. As for the experimental part: as §4, §5
Experiment [8] addresses T6, purified recombinant Lmo2812 (PBPD2) (Listeria monocytogenes, UniProt Q8Y3M3). The experiment in a line: Competition binding assay (ampicillin preincubation, then Boc-FL), purified recombinant protein. The conditions noted are these: purified recombinant Lmo2812 preincubated with 100 μg/ml ampicillin. On the procedure:
as §3

For experiment [9], the target named is T6, purified recombinant Lmo2812 (PBPD2). The experiment in a line: Fluorescent antibiotic binding assay, purified recombinant protein. On the procedure: The purified protein was incubated with different concentrations of Boc-FL (0.25, 0.5, 2.5, 5 and 10 μM). […] Lmo2812 was the major band on gels, with a slower migrating minor band thought to represent a dimeric form (Figure 2).
Figure 2 Purified recombinant L. monocytogenes Lmo2812 (PBPD2) identified with Boc-FL. Samples of purified recombinant Lmo2812 (10 μg) were labeled with Boc-FL at concentrations of 0 (1), 0.25 (2), 0.5 (3), 2.5 (4), 5 (5) and 10 μM (6). Labeled bands were detected directly on the gel, quantified and their molecular mass estimated. The affinity of the bands for Boc-FL (Kd50) was estimated from their fluorescence as a function of the concentration of Boc-FL. The names of the bands are indicated on the right, and the positions of the molecular weight markers are shown on the left.
The β-lactam binding capacity of Lmo2812 was evaluated with three different fluorescent antibiotics: Boc-FL, Boc-650 and Amp-430.
as §3, with “respectively. […]” for “respectively.”

For experiment [10], the target named is T1, PBPD1 (PBP5). The experiment in a line: Fluorescent antibiotic binding assay, whole cells. The following applies: read-out: Boc-FL Kd50, 30 min at 37°C, estimated from band fluorescence as a function of Boc-FL concentration. As for the experimental part: as §1, §2
as §3, with “The samples were then further incubated for 30 min at 37°C.” left out

For experiment [11], the target named is T2, PBPB1 (PBP3). As to the kind of experiment: Fluorescent antibiotic binding assay, whole cells. The following applies: read-out: Boc-FL Kd50, 30 min at 37°C, estimated from band fluorescence as a function of Boc-FL concentration. On the procedure: as §1, §2
as §3, with “The samples were then further incubated for 30 min at 37°C.” left out

For experiment [12], the target named is T3, PBPA2 (PBP4). The experiment in a line: Fluorescent antibiotic binding assay, whole cells. The following applies: read-out: Boc-FL Kd50, 30 min at 37°C, estimated from band fluorescence as a function of Boc-FL concentration. On the procedure:
as §1, §2
as §3, with “The samples were then further incubated for 30 min at 37°C.” left out

The target in experiment [13] is T4, PBPA1 (PBP1). The experiment in a line: Fluorescent antibiotic binding assay, whole cells. The conditions noted are these: read-out: Boc-FL Kd50, 30 min at 37°C, estimated from band fluorescence as a function of Boc-FL concentration. As for the experimental part: as §1, §2
as §3, with “The samples were then further incubated for 30 min at 37°C.” left out

Experiment [14] concerns the target T5, PBPB2 (PBP2). As to the kind of experiment: Fluorescent antibiotic binding assay, whole cells. The following applies: read-out: Boc-FL Kd50, 30 min at 37°C, estimated from band fluorescence as a function of Boc-FL concentration. On the procedure: as §1, §2
as §3, with “The samples were then further incubated for 30 min at 37°C.” left out

The mark [15] stands for this setting: ampicillin 100 μg/ml, 50 μM Boc-FL, Figure 1 lane 8 vs lane 7.
The mark [16] stands for this setting: preincubated with 100 μg/ml ampicillin, then 50 μM Boc-FL.

T2 sequence (Q8Y763 entry or part of it): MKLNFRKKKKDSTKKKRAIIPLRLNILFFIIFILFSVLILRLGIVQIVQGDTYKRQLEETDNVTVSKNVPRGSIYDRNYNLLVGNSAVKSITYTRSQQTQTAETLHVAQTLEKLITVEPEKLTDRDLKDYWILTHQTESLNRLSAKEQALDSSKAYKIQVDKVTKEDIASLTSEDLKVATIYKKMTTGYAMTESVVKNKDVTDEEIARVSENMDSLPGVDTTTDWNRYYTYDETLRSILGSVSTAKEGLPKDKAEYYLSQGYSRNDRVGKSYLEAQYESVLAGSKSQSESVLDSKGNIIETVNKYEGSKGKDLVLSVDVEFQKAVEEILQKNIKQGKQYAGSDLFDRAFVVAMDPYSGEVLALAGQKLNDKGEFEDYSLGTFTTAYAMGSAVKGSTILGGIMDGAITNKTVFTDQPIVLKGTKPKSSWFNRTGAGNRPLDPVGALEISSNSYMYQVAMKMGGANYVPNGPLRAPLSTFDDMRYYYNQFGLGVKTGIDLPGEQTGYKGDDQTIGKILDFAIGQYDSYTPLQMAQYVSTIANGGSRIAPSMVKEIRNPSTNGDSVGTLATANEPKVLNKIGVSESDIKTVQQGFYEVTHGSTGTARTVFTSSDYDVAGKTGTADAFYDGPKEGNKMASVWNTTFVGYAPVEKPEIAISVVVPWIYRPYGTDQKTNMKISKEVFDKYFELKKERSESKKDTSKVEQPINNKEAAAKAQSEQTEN
T1 sequence (Q8Y3S7 entry or part of it): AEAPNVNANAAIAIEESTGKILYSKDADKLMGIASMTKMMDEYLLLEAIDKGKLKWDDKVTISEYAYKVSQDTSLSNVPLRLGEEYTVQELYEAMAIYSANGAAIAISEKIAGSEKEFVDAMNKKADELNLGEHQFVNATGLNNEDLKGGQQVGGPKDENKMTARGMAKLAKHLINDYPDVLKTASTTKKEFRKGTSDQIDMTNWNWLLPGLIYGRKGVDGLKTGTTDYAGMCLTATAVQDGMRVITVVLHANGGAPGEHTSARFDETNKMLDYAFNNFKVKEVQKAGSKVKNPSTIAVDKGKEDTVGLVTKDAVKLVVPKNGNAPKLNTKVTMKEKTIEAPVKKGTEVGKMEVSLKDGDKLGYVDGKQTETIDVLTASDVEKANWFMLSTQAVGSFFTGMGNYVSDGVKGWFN
T5 sequence (Q8Y5L8 entry or part of it): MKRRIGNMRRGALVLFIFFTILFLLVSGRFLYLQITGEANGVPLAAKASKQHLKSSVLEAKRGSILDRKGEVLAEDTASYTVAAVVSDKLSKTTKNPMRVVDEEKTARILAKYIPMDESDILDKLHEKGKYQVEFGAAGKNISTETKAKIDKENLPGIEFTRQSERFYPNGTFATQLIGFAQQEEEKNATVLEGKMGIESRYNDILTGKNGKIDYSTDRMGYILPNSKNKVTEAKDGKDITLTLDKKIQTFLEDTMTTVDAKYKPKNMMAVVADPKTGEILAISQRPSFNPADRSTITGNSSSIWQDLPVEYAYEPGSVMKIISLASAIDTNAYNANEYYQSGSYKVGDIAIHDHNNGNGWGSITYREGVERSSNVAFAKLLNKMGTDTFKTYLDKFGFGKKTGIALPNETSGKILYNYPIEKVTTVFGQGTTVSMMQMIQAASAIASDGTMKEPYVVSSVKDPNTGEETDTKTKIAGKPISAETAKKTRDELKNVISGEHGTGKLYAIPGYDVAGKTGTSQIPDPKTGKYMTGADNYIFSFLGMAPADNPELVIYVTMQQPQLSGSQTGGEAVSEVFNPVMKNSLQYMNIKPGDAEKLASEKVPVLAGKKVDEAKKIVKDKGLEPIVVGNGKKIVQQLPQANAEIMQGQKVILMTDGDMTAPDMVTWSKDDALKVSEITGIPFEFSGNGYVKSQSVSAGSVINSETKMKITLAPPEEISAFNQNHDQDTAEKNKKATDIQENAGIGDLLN
T4 sequence (Q8Y610 entry or part of it): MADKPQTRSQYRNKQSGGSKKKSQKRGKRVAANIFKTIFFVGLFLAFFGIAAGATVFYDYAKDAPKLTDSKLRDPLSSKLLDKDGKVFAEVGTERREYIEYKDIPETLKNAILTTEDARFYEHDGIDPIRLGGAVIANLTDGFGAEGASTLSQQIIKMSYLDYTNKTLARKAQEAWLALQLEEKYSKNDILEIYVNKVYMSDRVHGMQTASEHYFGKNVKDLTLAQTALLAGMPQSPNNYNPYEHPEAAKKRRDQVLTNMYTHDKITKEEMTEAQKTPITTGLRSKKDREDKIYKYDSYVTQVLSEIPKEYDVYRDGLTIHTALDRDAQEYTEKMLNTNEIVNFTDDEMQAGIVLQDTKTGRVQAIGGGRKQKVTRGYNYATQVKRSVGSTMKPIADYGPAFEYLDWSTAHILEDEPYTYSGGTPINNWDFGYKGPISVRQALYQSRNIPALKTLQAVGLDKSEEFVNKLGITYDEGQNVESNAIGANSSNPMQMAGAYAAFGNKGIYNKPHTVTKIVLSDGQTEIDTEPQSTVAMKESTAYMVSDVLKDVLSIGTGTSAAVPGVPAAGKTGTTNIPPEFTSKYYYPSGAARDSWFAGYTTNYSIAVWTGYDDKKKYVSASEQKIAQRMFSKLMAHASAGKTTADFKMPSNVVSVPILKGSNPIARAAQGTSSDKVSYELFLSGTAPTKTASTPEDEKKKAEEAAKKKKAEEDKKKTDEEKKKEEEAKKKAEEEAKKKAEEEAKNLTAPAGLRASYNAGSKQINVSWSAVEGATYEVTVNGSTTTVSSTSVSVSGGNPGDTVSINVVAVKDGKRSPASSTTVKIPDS
T3 sequence (Q8Y547 entry or part of it): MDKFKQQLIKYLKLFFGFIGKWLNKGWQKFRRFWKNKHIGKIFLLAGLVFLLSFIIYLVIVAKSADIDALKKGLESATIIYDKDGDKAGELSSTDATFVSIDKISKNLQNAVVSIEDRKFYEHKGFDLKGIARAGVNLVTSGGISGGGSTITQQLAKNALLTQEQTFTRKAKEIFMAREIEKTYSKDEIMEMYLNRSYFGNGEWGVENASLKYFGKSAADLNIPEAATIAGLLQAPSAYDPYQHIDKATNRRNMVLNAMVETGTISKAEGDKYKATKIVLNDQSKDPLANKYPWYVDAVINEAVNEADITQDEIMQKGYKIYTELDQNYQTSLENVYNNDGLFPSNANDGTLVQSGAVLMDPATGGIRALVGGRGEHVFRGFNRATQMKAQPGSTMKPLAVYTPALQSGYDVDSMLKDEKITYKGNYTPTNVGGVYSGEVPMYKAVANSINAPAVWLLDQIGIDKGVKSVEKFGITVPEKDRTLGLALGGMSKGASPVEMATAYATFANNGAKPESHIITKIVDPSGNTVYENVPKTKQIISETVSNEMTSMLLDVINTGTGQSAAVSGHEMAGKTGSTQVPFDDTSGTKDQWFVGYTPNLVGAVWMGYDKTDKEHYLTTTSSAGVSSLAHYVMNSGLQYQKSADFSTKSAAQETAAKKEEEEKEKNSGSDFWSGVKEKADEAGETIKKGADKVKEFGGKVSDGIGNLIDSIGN
T6 sequence (Q8Y3M3 entry or part of it): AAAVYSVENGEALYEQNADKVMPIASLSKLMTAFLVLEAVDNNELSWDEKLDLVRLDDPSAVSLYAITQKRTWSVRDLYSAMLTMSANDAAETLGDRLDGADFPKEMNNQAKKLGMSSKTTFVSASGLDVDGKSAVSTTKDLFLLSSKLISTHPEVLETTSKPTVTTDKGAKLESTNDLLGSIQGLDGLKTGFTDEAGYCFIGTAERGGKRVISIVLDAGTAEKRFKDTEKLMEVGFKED
Sequence of PBPC2 (Q8Y5Y7 entry or part of it): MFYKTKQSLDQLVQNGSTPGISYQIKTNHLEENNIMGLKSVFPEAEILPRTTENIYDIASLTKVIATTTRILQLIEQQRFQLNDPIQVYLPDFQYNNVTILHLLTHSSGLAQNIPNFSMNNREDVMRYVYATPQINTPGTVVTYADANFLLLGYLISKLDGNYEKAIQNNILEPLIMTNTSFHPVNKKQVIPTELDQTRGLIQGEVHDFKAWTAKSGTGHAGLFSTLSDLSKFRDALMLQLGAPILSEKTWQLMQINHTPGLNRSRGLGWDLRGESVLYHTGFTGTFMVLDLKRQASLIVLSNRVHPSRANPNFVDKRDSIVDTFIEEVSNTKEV
Sequence of PBPC1 (Q8Y9I8 entry or part of it): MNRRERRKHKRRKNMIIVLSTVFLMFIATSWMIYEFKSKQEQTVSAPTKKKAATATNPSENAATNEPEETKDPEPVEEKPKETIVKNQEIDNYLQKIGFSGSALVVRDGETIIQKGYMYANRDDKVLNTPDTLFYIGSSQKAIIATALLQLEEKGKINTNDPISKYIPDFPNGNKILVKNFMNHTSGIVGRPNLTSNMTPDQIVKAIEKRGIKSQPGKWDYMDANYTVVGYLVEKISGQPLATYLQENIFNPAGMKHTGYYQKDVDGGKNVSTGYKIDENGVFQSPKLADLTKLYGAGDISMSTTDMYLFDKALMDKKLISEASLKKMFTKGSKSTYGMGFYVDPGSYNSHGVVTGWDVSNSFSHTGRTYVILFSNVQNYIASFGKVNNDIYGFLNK

For `CC1(C)S[C@@H]2[C@H](NC(=O)[C@H](N)c3ccccc3)C(=O)N2[C@H]1C(=O)O` [ampicillin], the “binding of ampicillin (disappearance of Boc-FL band)” value is “partial” on PBPB3 (setting [15]); “total” at PBPD1 (PBP5) [1] (setting [15]); “total” at PBPB1 (PBP3) [2] (setting [15]); “no binding” at PBPC1 (setting [15]); “no binding” at PBPC2 (setting [15]); “partial” on PBPA2 (PBP4) [3] (setting [15]). Moreover, the “binding of ampicillin (disappearance of Boc-FL band)” value at PBPA1 (PBP1) [4] (setting [15]) and on PBPB2 (PBP2) [5] (setting [15]) was “partial” in each case. Also, the “percentage of Boc-FL binding capacity remaining” value at PBPB3 (setting [16]) is reported as 95%; at PBPD1 (PBP5) [1] (setting [16]), 0%; at PBPB1 (PBP3) [2] (setting [16]), 0%; on PBPC1 (setting [16]) it was 100%; at PBPC2 (setting [16]), 100%; on PBPA2 (PBP4) [3] (setting [16]) it was 90%. Besides, the “percentage of Boc-FL binding capacity remaining” value at PBPA1 (PBP1) [4] (setting [16]) is 95%; on PBPB2 (PBP2) [5] (setting [16]), 90%; in [8], 0^b %. The “inhibition of Boc-FL binding” value on PBPD1 (PBP5) [1] (Amp at 100 μg/ml) and at PBPB1 (PBP3) [2] (Amp at 100 μg/ml) was “completely inhibited” in each case. Moreover, the MIC (commonly the lowest concentration found to suppress growth) in experiment [6] worked out at 0.31 µg/mL (≈ 0.887 µM); in the experiment with L. monocytogenes EGD, 0.31 µg/mL (≈ 0.887 µM); in [7], 0.16 µg/mL (≈ 0.458 µM).

With `Cc1cc(C)n2c1C=C1C=CC(CCC(=O)Nc3ccc(OCC(=O)N[C@@H]4C(=O)N5[C@@H]4SC(C)(C)[C@@H]5C(=O)O)cc3)=[N+]1[B-]2(F)F` [Boc-FL, Bocillin-FL], the Kd in experiment [9] was 2500 nM; on PBPD1 (PBP5) [10], 5 µM; on PBPB1 (PBP3) [11], 250 nM; at PBPA2 (PBP4) [12], 250 nM; on PBPA1 (PBP1) [13], more than 10 µM; at PBPB2 (PBP2) [14], 250 nM.

Values taken from article PMC2949700, “Identification of the full set of Listeria monocytogenes penicillin-binding proteins and characterization of PBPD2 (Lmo2812)” (BMC Microbiology, 2010).
